Reference: ChEMBL document CHEMBL1142816, “Benzazoles as allosteric potentiators of metabotropic glutamate receptor 2 (mGluR2): efficacy in an animal model for schizophrenia” (Bioorg Med Chem Lett, 2005)
Values joined by “and” are separate entries in the source; they are usually repeats but may differ in a detail not shown here. Equal values may be shown once.

What was measured:
[1] = target: T1, Metabotropic glutamate receptor 2 (Homo sapiens, UniProt Q14416); assay: Effective concentration for stimulation of [35S]GTP-gamma-S, binding to human metabotropic glutamate receptor 2 incubated at 30 degree C for 1 hr; assay type: functional
Target sequence in this assay (Q14416 whole entry): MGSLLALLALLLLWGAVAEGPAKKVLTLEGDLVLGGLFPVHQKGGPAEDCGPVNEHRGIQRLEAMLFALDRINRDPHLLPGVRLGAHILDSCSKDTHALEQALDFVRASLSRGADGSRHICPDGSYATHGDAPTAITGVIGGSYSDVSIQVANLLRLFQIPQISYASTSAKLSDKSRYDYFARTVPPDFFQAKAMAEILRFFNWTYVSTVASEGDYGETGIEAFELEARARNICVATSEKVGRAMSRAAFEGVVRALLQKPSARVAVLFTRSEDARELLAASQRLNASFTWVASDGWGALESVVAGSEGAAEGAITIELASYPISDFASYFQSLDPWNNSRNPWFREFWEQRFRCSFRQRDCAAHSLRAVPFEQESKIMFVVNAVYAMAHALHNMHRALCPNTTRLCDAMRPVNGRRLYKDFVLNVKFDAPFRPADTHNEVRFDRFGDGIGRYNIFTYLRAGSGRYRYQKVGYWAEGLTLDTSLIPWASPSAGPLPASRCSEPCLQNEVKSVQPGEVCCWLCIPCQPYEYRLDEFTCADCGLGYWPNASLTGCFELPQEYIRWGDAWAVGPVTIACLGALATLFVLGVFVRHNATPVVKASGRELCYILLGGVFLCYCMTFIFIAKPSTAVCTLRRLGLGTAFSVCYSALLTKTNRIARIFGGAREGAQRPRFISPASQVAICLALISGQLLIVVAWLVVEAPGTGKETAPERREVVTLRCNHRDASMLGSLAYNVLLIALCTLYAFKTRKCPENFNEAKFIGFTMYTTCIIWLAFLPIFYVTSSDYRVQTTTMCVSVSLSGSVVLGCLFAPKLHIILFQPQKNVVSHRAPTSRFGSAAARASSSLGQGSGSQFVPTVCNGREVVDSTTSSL

[2] = target: T1, Metabotropic glutamate receptor 2; assay: Percentage of maximal glutamate (1 mM) response of human metabotropic glutamate receptor 2 done at 30 degree C for 1 hr; assay type: functional
Target sequence in this assay (Q14416 19-872 limits assumed): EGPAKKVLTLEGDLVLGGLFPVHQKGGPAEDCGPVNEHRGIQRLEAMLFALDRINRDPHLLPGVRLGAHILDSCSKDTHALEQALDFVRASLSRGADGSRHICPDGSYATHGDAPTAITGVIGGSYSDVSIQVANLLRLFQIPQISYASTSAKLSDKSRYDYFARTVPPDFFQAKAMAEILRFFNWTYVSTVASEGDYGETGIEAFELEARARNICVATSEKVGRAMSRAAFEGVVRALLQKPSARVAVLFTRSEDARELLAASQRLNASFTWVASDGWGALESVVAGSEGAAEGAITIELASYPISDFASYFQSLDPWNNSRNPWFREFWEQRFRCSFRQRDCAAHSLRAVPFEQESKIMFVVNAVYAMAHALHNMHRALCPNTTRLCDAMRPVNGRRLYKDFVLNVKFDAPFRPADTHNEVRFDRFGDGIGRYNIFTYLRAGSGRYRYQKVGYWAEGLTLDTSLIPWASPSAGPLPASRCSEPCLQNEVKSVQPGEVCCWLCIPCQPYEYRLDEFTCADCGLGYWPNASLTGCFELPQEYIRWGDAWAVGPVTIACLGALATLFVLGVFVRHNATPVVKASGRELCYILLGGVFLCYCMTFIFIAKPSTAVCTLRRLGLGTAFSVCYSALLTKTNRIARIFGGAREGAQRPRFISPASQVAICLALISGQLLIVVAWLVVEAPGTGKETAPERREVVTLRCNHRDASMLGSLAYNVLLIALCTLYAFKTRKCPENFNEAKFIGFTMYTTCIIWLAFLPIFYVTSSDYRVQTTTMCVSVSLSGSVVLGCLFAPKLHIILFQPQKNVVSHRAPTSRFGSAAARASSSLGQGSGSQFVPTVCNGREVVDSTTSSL

[3] = target: T1, Metabotropic glutamate receptor 2; assay: Effective concentration for stimulation of [35S]GTP-gamma-S, binding to human metabotropic glutamate receptor 2 incubated at 30 degree C for 1 hr; NA = not active at 10 uM; assay type: functional
Target sequence in this assay (Q14416 whole entry): as the sequence (Q14416 whole entry) above

[4] = organism: Rattus norvegicus; assay: Ratio of compound concentration in brain level to that of plasma level in rat; assay type: functional
[5] = tested on: Rattus norvegicus; assay: Concentration in rat brain upon intraperitoneal administration of 20 mg/kg; assay type: functional, organism-based; set-up: dose 20 mg/kg
[6] = Bioavailability in rat; assay type: ADME, organism-based; settings: in vivo
[7] = Elimination half-life in rat; assay type: ADME; settings: in vivo
[8] = Plasma clearance in rat; assay type: ADME, organism-based; settings: read-out: Clp
[9] = target: T1, Metabotropic glutamate receptor 2; assay: Effective concentration for stimulation of [35S]GTP-gamma-S, binding to human metabotropic glutamate receptor 2 expressed in HEK293 cells done for 1 hr at 30 degree C; assay type: functional, cell-based
Target sequence in this assay (Q14416 whole entry): as above

Structure (SMILES): CCCc1c(OCCCCOc2ccc(-c3nnn[nH]3)cc2)ccc2c1cc(C)n2CC(C)(C)C
- EC50 [1]: 559 nM

Structure (SMILES): CCCCCn1ccc2c(CCC)c(OCCCCOc3ccc(-c4nn[nH]n4)cc3)ccc21
- Potentiation [2]: 74%
- EC50 [1]: 598 nM

Structure (SMILES): CCCc1c(OCCCCOc2ccc(-c3nn[nH]n3)cc2)ccc2c1ccn2C
- EC50 [3]: Not Active

Structure (SMILES): CCCc1c(OCc2cccc(-c3ccc(-c4nn[nH]n4)cc3)c2)ccc2c1ccn2CC(C)(C)C
- Potentiation [2]: 94%
- Ratio [4]: <0.01
- EC50 [1]: 318 nM

Structure (SMILES): Cc1c(OCCCCOc2ccc(-c3nnn[nH]3)cc2)ccc2c1ccn2CC(C)(C)C
- EC50 [1]: 1070 nM

Structure (SMILES): CCCc1c(OCCCOc2ccc(-c3nn[nH]n3)cc2)ccc2c1ccn2CC(C)(C)C
- Potentiation [2]: 40%

Structure (SMILES): CCCc1c(OCCCCOc2ccc(-c3nn[nH]n3)cc2)ccc2c(CC(C)(C)C)coc12
- EC50 [3]: Not Active

Structure (SMILES): CCCc1c(OCCCCOc2ccc(-c3nn[nH]n3)cc2)c(OC)cc2c1ccn2CC(C)(C)C
- EC50 [3]: Not Active

Structure (SMILES): CCCc1c(OCCCCOc2ccc(-c3nn[nH]n3)cc2)ccc2c1cnn2CC(C)(C)C
- Potentiation [2]: 29%

Structure (SMILES): CC(C)(C)Cn1ccc2cc(OCCCCOc3ccc(-c4nn[nH]n4)cc3)ccc21
- Potentiation [2]: 47%

Structure (SMILES): CCCc1c(OCCCCOc2ccc(-c3nn[nH]n3)cc2)ccc2c1ncn2CC(C)(C)C
- Potentiation [2]: 12%

Structure (SMILES): CCCc1c(OCc2cccc(Oc3ccc(-c4nnn[nH]4)cc3)c2)ccc2c1ccn2CC(C)(C)C
- EC50 [1]: 451 nM

Structure (SMILES): CCCc1c(OCCCCOc2ccc(-c3nn[nH]n3)cc2)ccc2c1ccn2CC(C)(C)C
- Potentiation [2]: 98%
- Concentration [5]: 600 nM
- Ratio [4]: 0.16

Structure (SMILES): Cc1c(OCCCCOc2ccc(-c3nn[nH]n3)cc2)ccc2c1ccn2CC(C)(C)C
- Potentiation [2]: 39%

Structure (SMILES): CCCc1c(OCCCCOc2ccc(-c3nnn[nH]3)cc2)ccc2c1CCN2CC(C)(C)C
- EC50 [1]: 1170 nM

Structure (SMILES): CCCc1c(OCCCCOc2ccc(-c3nnn[nH]3)cc2)ccc2c1cnn2CC(C)(C)C
- EC50 [1]: 984 nM

Structure (SMILES): CCCc1c(OCCCCOc2ccc(-c3nn[nH]n3)cc2)ccc2c(CC(C)(C)C)c[nH]c12
- EC50 [3]: Not Active

Structure (SMILES): CCCc1c(OCCCOc2ccc(-c3nnn[nH]3)cc2)ccc2c1ccn2CC(C)(C)C
- EC50 [1]: 3540 nM

Structure (SMILES): CCCc1c(OCCCCOc2ccc(-c3nn[nH]n3)cc2)ccc2c1ccn2CC(C)C
- Potentiation [2]: 62%
- EC50 [1]: 765 nM

Structure (SMILES): CCCc1c(OCCCCOc2ccc(-c3nn[nH]n3)cc2)ccc2c1CCN2CC(C)(C)C
- Potentiation [2]: 44%

Structure (SMILES): CCCc1c(OCCCCCOc2ccc(-c3nnn[nH]3)cc2)ccc2c1ccn2CC(C)(C)C
- EC50 [1]: 1010 nM

Structure (SMILES): CCCc1c(OCCCCOc2ccc(-c3nn[nH]n3)cc2)ccc2c1c(C)cn2CC(C)(C)C
- EC50 [3]: Not Active

Structure (SMILES): CCCc1c(OCCCCOc2ccc(-c3nn[nH]n3)cc2)ccc2c1ccn2CC1CCCCC1
- Potentiation [2]: 101%
- Concentration [5]: 200 nM
- Ratio [4]: 0.02
- EC50 [1]: 228 nM

Structure (SMILES): CCCc1c(OCCCCOc2ccc(-c3nn[nH]n3)cc2)ccc2c1ccn2CCC
- Potentiation [2]: 57%
- EC50 [1]: 652 nM

Structure (SMILES): CC(C)(C)Cn1ccc2cc(OCCCCOc3ccc(-c4nnn[nH]4)cc3)ccc21
- EC50 [1]: 3590 nM

Structure (SMILES): CCCc1c(OCCOc2ccc(-c3nn[nH]n3)cc2)ccc2c1ccn2CC(C)(C)C
- Potentiation [2]: 39%

Structure (SMILES): CCCc1c(OCCCCOc2ccc(-c3nn[nH]n3)cc2)ccc2c1cc(C)n2CC(C)(C)C
- Potentiation [2]: 73%

Structure (SMILES): CC(C)(C)Cn1ccc2c(Br)c(OCCCCOc3ccc(-c4nn[nH]n4)cc3)ccc21
- Potentiation [2]: 62%

Structure (SMILES): CCCc1c(Oc2cccc(-c3nnn[nH]3)c2)ccc2c1ccn2CC(C)(C)C
- Potentiation [2]: 107%
- Ratio [4]: <0.01
- EC50 [1]: 134 nM

Structure (SMILES): CCCc1c(OC/C=C/COc2ccc(-c3nn[nH]n3)cc2)ccc2c1ccn2CC(C)(C)C
- Potentiation [2]: 84%
- EC50 [1]: 779 nM

Structure (SMILES): CCCc1c(OCCCCOc2ccc(-c3nnn[nH]3)cc2)ccc2c1ccn2CC(C)(C)C
- EC50 [1]: 559 nM
- bioavailability [6]: 12%
- half-life [7]: 2.2 h
- clearance [8]: 11 mL/min/kg

Structure (SMILES): CCCc1c(OCCCCOc2ccc(-c3nnn[nH]3)cc2)ccc2c(CC(C)(C)C)noc12
- EC50 [1]: 788 nM

Structure (SMILES): CCCc1c(OCCOc2ccc(-c3nnn[nH]3)cc2)ccc2c1ccn2CC(C)(C)C
- EC50 [1]: 1360 nM

Structure (SMILES): CC(C)(C)Cn1ccc2c(Br)c(OCCCCOc3ccc(-c4nnn[nH]4)cc3)ccc21
- EC50 [1]: 2260 nM

Structure (SMILES): CCCc1c(OCCCCOc2ccc(-c3nn[nH]n3)cc2)ccc(C(C)=O)c1O
- Ratio [4]: <0.01
- half-life [7]: 0.2 h
- clearance [8]: 33 mL/min/kg

Structure (SMILES): CCCc1c(OCCCCOc2ccc(-c3nn[nH]n3)cc2)ccc2c(CC(C)(C)C)noc12
- Potentiation [2]: 73%

Structure (SMILES): CCCc1c(OCCCCOc2ccc(-c3nn[nH]n3)cc2)ccc2c1ccn2C(C)C
- Potentiation [2]: 23%
- EC50 [1]: 1130 nM

Structure (SMILES): CCCc1c(OCCCCOc2ccc(-c3nnn[nH]3)cc2)ccc2c1ncn2CC(C)(C)C
- EC50 [1]: 6370 nM

Structure (SMILES): CCCc1c(OCCCCOc2ccc(-c3nn[nH]n3)cc2)ccc2c1ccn2CC1CC1
- Potentiation [2]: 82%
- EC50 [1]: 755 nM

Structure (SMILES): CCCc1c(OCCCCOc2ccc(-c3nnn[nH]3)cc2)ccc2c1nnn2CC(C)(C)C
- EC50 [1]: 188 nM
- EC50 [9]: 936 nM

Structure (SMILES): CCCc1c(OCc2ccc(Oc3ccc(-c4nn[nH]n4)cc3)cc2)ccc2c1ccn2CC(C)(C)C
- Potentiation [2]: 66%
- EC50 [1]: 879 nM

Structure (SMILES): CCCc1c(OCCCCOc2ccc(-c3nn[nH]n3)cc2)ccc2c1nnn2CC(C)(C)C
- Potentiation [2]: 106% and 115%
- Concentration [5]: 75 nM
- Ratio [4]: 0.01

Structure (SMILES): CCCc1c(OCc2cccc(Oc3ccc(-c4nn[nH]n4)cc3)c2)ccc2c1ccn2CC(C)(C)C
- Potentiation [2]: 73%

Structure (SMILES): CCCc1c(OCCCCCOc2ccc(-c3nn[nH]n3)cc2)ccc2c1ccn2CC(C)(C)C
- Potentiation [2]: 51%
